This assay has as its system MIA PaCa-2. The method, then: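 MIA PaCa-2 Tet-on shOFD1 pancreatic cancer cells (2000 cells/well, 96-well) were treated with Selleck FDA-approved library compounds at 0, 1, 5, 10, 25 and 50 µM, with extra concentrations added where needed, for 72 h at 37 °C. Knockdown wells also received 100 ng/mL doxycycline; control wells received DMSO without doxycycline. Viability was read by CCK-8 absorbance at 450 nm and normalised to DMSO control wells. IC50 was fitted in GraphPad Prism as a 4-parameter logistic with bottom fixed at 0 and top fixed at 1; at least 3 technical replicate wells per condition.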

Where [1] appears, read: OFD1 knockdown: no (no doxycycline).
[2] abbreviates: OFD1 knockdown: yes (Tet-on shOFD1, 100 ng/mL doxycycline).

In the case of `CCCS(=O)(=O)Nc1ccc(F)c(C(=O)c2c[nH]c3ncc(-c4ccc(Cl)cc4)cc23)c1F` [S1267], the IC50 cell viability by setting is: under setting [1], 17 µM; under setting [2], 17.6 µM.

For `CN(C)c1nc(N(C)C)nc(N(C)C)n1` [S1278], the IC50 cell viability came out at 2.56 µM under setting [1] and 2.43 µM under setting [2].

Regarding `CCCCCCNC(=O)n1cc(F)c(=O)[nH]c1=O` [S1289], the IC50 cell viability is, setting by setting: under setting [1], 2.36 µM; under setting [2], 2.4 µM.

`O=c1[nH]c(=O)n([C@H]2C[C@H](O)[C@@H](CO)O2)cc1F` [S1299]: the IC50 cell viability runs as follows: under setting [1], 11.5 µM; under setting [2], 11.4 µM.

In the case of `O=c1[nH]c(=O)n(C2CCCO2)cc1F` (stereo not given) [S1300], the IC50 cell viability reads like this: under setting [1], 48.4 µM; under setting [2], 43.1 µM.

For the compound `O=P1(NCCCl)OCCCN1CCCl` (stereo not given) [S1302], the IC50 cell viability by setting is: under setting [1], 53 µM; under setting [2], 55.2 µM.

Consider `CC(=O)O[C@]1(C(C)=O)CC[C@H]2[C@@H]3C=C(C)C4=CC(=O)CC[C@]4(C)[C@H]3CC[C@@]21C` [S1304], for which the IC50 cell viability is, setting by setting: under setting [1], 2.01 µM; under setting [2], 1.81 µM.

As to `S=c1[nH]cnc2nc[nH]c12` [S1305], the IC50 cell viability runs as follows: under setting [1], 27.5 µM; under setting [2], 27.7 µM.

With `CN(N=O)C(=O)NC1C(O)OC(CO)C(O)C1O` (stereo not given) [S1312], the IC50 cell viability reads like this: under setting [1], 30.1 µM; under setting [2], 30.4 µM.

With `C[C@@H]1C[C@H]2[C@@H]3CCC4=CC(=O)C=C[C@]4(C)[C@@]3(F)[C@@H](O)C[C@]2(C)[C@@]1(O)C(=O)CO` [S1322], the IC50 cell viability under setting [1] was found to be 8.52 µM and the IC50 cell viability under setting [2] came to 7.75 µM.

For `COc1cc2nc(N3CCN(C(=O)C4COc5ccccc5O4)CC3)nc(N)c2cc1OC` (stereo not given) [S1324], the IC50 cell viability under setting [1] amounted to 18.1 µM and the IC50 cell viability under setting [2] worked out at 17.6 µM.

On to `COc1cc(OC)c(/C=C/S(=O)(=O)Cc2ccc(OC)c(NCC(=O)O)c2)c(OC)c1` [S1362], for which the IC50 cell viability was determined as 2.53 µM under setting [1] and 2.01 µM under setting [2].

Take `C/C(=C\c1csc(C)n1)[C@@H]1C[C@@H]2O[C@]2(C)CCC[C@H](C)[C@H](O)[C@@H](C)C(=O)C(C)(C)[C@@H](O)CC(=O)O1` [S1364]: the IC50 cell viability amounted to 0.76 µM under setting [1] and 0.87 µM under setting [2].

As to `N#CC[C@H](C1CCCC1)n1cc(-c2ncnc3[nH]ccc23)cn1` [S1378], the IC50 cell viability by setting is: under setting [1], 70.3 µM; under setting [2], 68.4 µM.

Regarding `CC1=C(/C=C/C(C)=C/C=C/C(C)=C\C(=O)O)C(C)(C)CCC1` [S1379], the IC50 cell viability is, setting by setting: under setting [1], 12.2 µM; under setting [2], 11.5 µM.

For `CCOc1cc2ncc(C#N)c(Nc3ccc(F)c(Cl)c3)c2cc1NC(=O)/C=C/CN(C)C` [S1392], the IC50 cell viability worked out at 53.8 µM under setting [1] and 56.4 µM under setting [2].

Turning to `Cc1ccc(C(=O)N(CCCN)[C@@H](c2nc3cc(Cl)ccc3c(=O)n2Cc2ccccc2)C(C)C)cc1` [S1452], the IC50 cell viability is, setting by setting: under setting [1], 1.44 µM; under setting [2], 1.4 µM.

On to `COc1nc(C)cnc1NS(=O)(=O)c1cccnc1-c1ccc(-c2nnco2)cc1` [S1456], for which the IC50 cell viability amounted to 70.2 µM under setting [1] and 64.3 µM under setting [2].

As for `C=C1/C(=C\C=C2/CCC[C@]3(C)[C@@H]([C@H](C)/C=C/[C@H](C)C(C)C)CC[C@@H]23)C[C@@H](O)C[C@@H]1O` [S1467], the IC50 cell viability is 46.5 µM under setting [1] and 45.7 µM under setting [2].

Turning to `Cc1ccc(C(=O)Nc2ccc(CN3CCN(C)CC3)c(C(F)(F)F)c2)cc1C#Cc1cnc2cccnn12` [S1490], the IC50 cell viability runs as follows: under setting [1], 3.75 µM; under setting [2], 3.86 µM.

As to `Nc1nc(F)nc2c1ncn2[C@@H]1O[C@H](CO)[C@@H](O)[C@@H]1O` [S1491], the IC50 cell viability came out at 59 µM under setting [1] and 54.2 µM under setting [2].

As for `CC(C)(C)Cn1c(N)nc2ccc(-c3[nH]c(C(C)(C)C)nc3-c3ccc(F)cc3)nc21` [S1494], the IC50 cell viability reads like this: under setting [1], 4.04 µM; under setting [2], 3.46 µM.

For the compound `COc1c(C)c2c(c(O)c1C/C=C(\C)CCC(=O)OCCN1CCOCC1)C(=O)OC2` [S1501], the IC50 cell viability under setting [1] was found to be 11.9 µM and the IC50 cell viability under setting [2] was 11.5 µM.

Turning to `CN1CC(=O)N2[C@H](c3ccc4c(c3)OCO4)c3[nH]c4ccccc4c3C[C@@H]2C1=O` [S1512], the IC50 cell viability was found to be 23.7 µM under setting [1] and 23.5 µM under setting [2].

On to `CCCCc1nc2cc(/C=C/C(=O)NO)ccc2n1CCN(CC)CC` [S1515], for which the IC50 cell viability by setting is: under setting [1], 5.47 µM; under setting [2], 5.05 µM.

Take `COc1cc(Nc2nc3ccccc3nc2NS(=O)(=O)c2ccc(NC(=O)c3ccc(C)c(OC)c3)cc2)cc(OC)c1` [S1523]: the IC50 cell viability runs as follows: under setting [1], 47.6 µM; under setting [2], 45.5 µM.

Consider `CC(C)(C)c1cc(NC(=O)Nc2ccc(-c3cn4c(n3)sc3cc(OCCN5CCOCC5)ccc34)cc2)no1` [S1526], for which the IC50 cell viability reads like this: under setting [1], 13.8 µM; under setting [2], 14.4 µM.

With `NC(=O)C1CCCc2c1[nH]c1ccc(Cl)cc21` (stereo not given) [S1541], the IC50 cell viability under setting [1] was determined as 70.7 µM and the IC50 cell viability under setting [2] was 65 µM.

In the case of `Cc1nc(-c2ccc(OCC(C)C)c(C#N)c2)sc1C(=O)O` [S1547], the IC50 cell viability reads like this: under setting [1], 12.4 µM; under setting [2], 12.3 µM.

Consider `CCOc1ccc(Cc2cc([C@@H]3O[C@H](CO)[C@@H](O)[C@H](O)[C@H]3O)ccc2Cl)cc1` [S1548], for which the IC50 cell viability runs as follows: under setting [1], 16.5 µM; under setting [2], 17 µM.

For `OC(CNCC(O)C1CCc2cc(F)ccc2O1)C1CCc2cc(F)ccc2O1` (stereo not given) [S1549], the IC50 cell viability runs as follows: under setting [1], 28.8 µM; under setting [2], 27.2 µM.

In turn, `COc1ccc(-c2nc3cc(C4=NNC(=O)CC4C)ccc3[nH]2)cc1` (stereo not given) [S1550] registered an IC50 cell viability under setting [1] of 26.3 µM and an IC50 cell viability under setting [2] of 28.8 µM.

For the compound `Nc1cccc2c1C(=O)N(C1CCC(=O)NC1=O)C2=O` (stereo not given) [S1567], the IC50 cell viability reads like this: under setting [1], 15.7 µM; under setting [2], 15.5 µM.

Take `Cc1ccc(-n2nc(C(C)(C)C)cc2NC(=O)Nc2ccc(OCCN3CCOCC3)c3ccccc23)cc1` [S1574]: the IC50 cell viability reads like this: under setting [1], 77.2 µM; under setting [2], 83.8 µM.

Turning to `CCOc1nc2cccc(C(=O)O)c2n1Cc1ccc(-c2ccccc2-c2nnn[nH]2)cc1` [S1578], the IC50 cell viability is 1.56 µM under setting [1] and 1.3 µM under setting [2].

As to `CC1(C)O[C@@H]2C[C@H]3[C@@H]4CCC5=CC(=O)C=C[C@]5(C)[C@@]4(F)[C@@H](O)C[C@]3(C)[C@]2(C(=O)CO)O1` [S1628], the IC50 cell viability runs as follows: under setting [1], 23 µM; under setting [2], 22.1 µM.

Consider `Oc1ncnc2[nH]ncc12` [S1630], for which the IC50 cell viability came to 13.5 µM under setting [1] and 13.3 µM under setting [2].

With `CC1=C(/C=C/C(C)=C/C=C/C(C)=C/C(=O)O)C(C)(C)CCC1` [S1653], the IC50 cell viability turned out to be 13.6 µM under setting [1] and 14.3 µM under setting [2].

For the compound `O=C1[C@H](CC[C@H](O)c2ccc(F)cc2)[C@@H](c2ccc(O)cc2)N1c1ccc(F)cc1` [S1655], the IC50 cell viability reads like this: under setting [1], 3.33 µM; under setting [2], 3.62 µM.

`C[C@]12CC[C@@H]3c4ccc(O)cc4CC[C@H]3[C@@H]1CCC2=O` [S1665] showed an IC50 cell viability under setting [1] of 38.1 µM and an IC50 cell viability under setting [2] of 37.8 µM.

Regarding `CCC1(c2ccc(N)cc2)CCC(=O)NC1=O` (stereo not given) [S1672], the IC50 cell viability amounted to 23.6 µM under setting [1] and 22.2 µM under setting [2].

In the case of `CCN(CC)C(=S)SSC(=S)N(CC)CC` [S1680], the IC50 cell viability amounted to 46.3 µM under setting [1] and 49.8 µM under setting [2].

For the compound `C[C@H]1C[C@H]2[C@@H]3CCC4=CC(=O)C=C[C@]4(C)[C@H]3C(=O)C[C@]2(C)[C@@]1(O)C(=O)CO` [S1689], the IC50 cell viability is, setting by setting: under setting [1], 17.6 µM; under setting [2], 16.8 µM.

As for `CS(=O)(=O)OCCCCOS(C)(=O)=O` [S1692], the IC50 cell viability reads like this: under setting [1], 11.6 µM; under setting [2], 12.1 µM.

In the case of `C[C@]12CCC(=O)C=C1CC[C@@H]1[C@@H]2[C@@H](O)C[C@@]2(C)[C@H]1CC[C@]2(O)C(=O)CO` [S1696], the IC50 cell viability reads like this: under setting [1], 57.9 µM; under setting [2], 53.4 µM.

In the case of `C[C@]12CC[C@@H]3c4ccc(O)cc4CC[C@H]3[C@@H]1CC[C@@H]2O` [S1709], the IC50 cell viability reads like this: under setting [1], 18 µM; under setting [2], 18.8 µM.

Compound `Nc1ccn([C@@H]2O[C@H](CO)[C@@H](O)C2(F)F)c(=O)n1` [S1714] registered an IC50 cell viability under setting [1] of 3.36 µM and an IC50 cell viability under setting [2] of 3.16 µM.

Turning to `Cn1cnc([N+](=O)[O-])c1Sc1ncnc2[nH]cnc12` [S1721], the IC50 cell viability was 28.1 µM under setting [1] and 29.2 µM under setting [2].

Take `O=S(=O)(O)CCS` [S1735]: the IC50 cell viability under setting [1] turned out to be 19.2 µM and the IC50 cell viability under setting [2] was determined as 18.3 µM.

Turning to `CN(C)CCOc1ccc(/C(=C(/CCCl)c2ccccc2)c2ccccc2)cc1` [S1776], the IC50 cell viability is, setting by setting: under setting [1], 47.6 µM; under setting [2], 46.9 µM.

Regarding `Nc1ncn([C@@H]2O[C@H](CO)[C@@H](O)[C@H]2O)c(=O)n1` [S1782], the IC50 cell viability is, setting by setting: under setting [1], 12.6 µM; under setting [2], 10.7 µM.

For `COc1cc([C@@H]2c3cc4c(cc3[C@@H](O[C@@H]3O[C@@H]5CO[C@@H](c6cccs6)O[C@H]5[C@H](O)[C@H]3O)[C@H]3COC(=O)[C@H]23)OCO4)cc(OC)c1O` [S1787], the IC50 cell viability under setting [1] was 0.62 µM and the IC50 cell viability under setting [2] was found to be 0.59 µM.

On to `CCC(C)(C)C(=O)O[C@H]1C[C@@H](C)C=C2C=C[C@H](C)[C@H](CC[C@@H]3C[C@@H](O)CC(=O)O3)[C@H]21` [S1792], for which the IC50 cell viability is, setting by setting: under setting [1], 26.2 µM; under setting [2], 25 µM.

`COc1ccccc1OCC(O)CN1CCN(CC(=O)Nc2c(C)cccc2C)CC1` (stereo not given) [S1799]: the IC50 cell viability was determined as 20.2 µM under setting [1] and 19.2 µM under setting [2].

For `O=NN(CCCl)C(=O)NC1CCCCC1` [S1840], the IC50 cell viability runs as follows: under setting [1], 18.8 µM; under setting [2], 16.9 µM.

The values are drawn from the supplement of paper PMC12325586.
